Assay: Thermogravimetric analysis (thermal stability)
Assay type: physicochemical
Conditions: thermogravimetric profile (FIG. 6)

Substance: benzalkonium chloride
- temperature to which stable / at which decomposition begins (TGA): about 200 °C

From patent US20260240166A1, “ANTIMICROBIAL AND ANTIVIRAL, BIOLOGICALLY ACTIVE POLYMER COMPOSITES EFFECTIVE AGAINST SARS-COV-2 AND OTHER VIRAL, BACTERIAL AND FUNGAL TARGETS, AND RELATED METHODS, MATERIALS, COATINGS AND DEVICES” (priority 2019, published 2026)
